The source of these data is a melting point compilation (Tetko et al.; mined from patent text by program, amines drawn as free bases though some values may be those of a salt).

Broadly, the melting point is the temperature of the solid-liquid transition. Turning to `Cc1cc(C(=O)OC2CC(C)(C)NC(C)(C)C2)c(C)o1`, the melting point lay in the range of 59 to 61 °C. Take `O=S(=O)(Nc1ccc(Cl)cc1-c1cc(-c2ccc(Cl)cc2Cl)on1)C(F)(F)F`: the melting point was in the range of 142 to 144 °C. The result for `CNC1=NS(=O)N=C1NCCS` (configuration not stated) reads 191 to 193 °C; that for `O=NCNC1=Nc2ccc([N+](=O)[O-])cc2C(c2ccccc2Cl)=NC1`, 164 to 166 °C; that for `Cc1c[nH]c(Cc2ccccc2NC(=O)N2CCN(C)CC2)n1`, 177 to 179 °C. Next, `N#CCN1CCC(Nc2nc3ccccc3n2Cc2ccnc3ccccc23)CC1`: 190 °C.

On to `CC(C)[C@H](NC(=O)N(C)Cc1csc(C2CC2)n1)C(=O)N[C@@H](Cc1ccccc1)C[C@H](O)[C@H](Cc1ccccc1)NC(=O)OCc1cncs1`, for which the melting point lay in the range of 70 to 71 °C. The compound `O=C(NC[C@H]1O[C@H]1c1ccccc1)c1ccc(NC(=O)C(F)(F)F)cc1` (racemic) had a melting point of 190 °C. As to `O=C(c1ccc(Cl)cc1)c1cc[nH]c1`, the melting point was in the range of 118 to 120 °C.

For the compound `Cc1ccc(Cc2cnc(NCCCCNc3ncc(Cl)cc3C)[nH]c2=O)cn1`, the melting point was in the range of 202 to 203 °C.

`N#CN1CCSC1=NC1CCc2ccccc21` (configuration not stated) returned a melting point of 90 to 91 °C. The result for `CCn1c(=O)c2cnc(N)nc2n(CC)c1=O` reads 230 to 232 °C. With `COc1ccc(C(=O)O)c(OC(C)C)c1Br`, the melting point lay within 109 to 110 °C. The result for `COC(=O)c1cc(-n2cccc2)ccc1C` reads 56 to 57 °C; that for `CC12C=CC(=O)C=C1C(N=[N+]=[N-])CC1C2CCC2(C)C(=O)CCC12` (configuration not stated), 168 to 170 °C. The result for `CC(=O)Oc1cccc2c1C(=O)C(CN1CCC(O)(c3ccccc3)CC1)CC2` (configuration not stated) reads 170 to 172 °C; that for `COC(=O)OC(C(=O)O)c1ccccc1` (configuration not stated), 103 to 105 °C. Compound `CN1C(=O)c2cnc(-c3ccccc3)nc2N(C(=O)CN2CCCC2)c2ccccc21` returned a melting point of 196 °C. The result for `Cc1nc2ccccc2n1Cc1ccc(C(=O)N(C)C2CCNCC2)cc1` reads 196 to 198 °C; that for `CC1CC(=O)NN=C1c1ccc2c(c1)NC(=O)C(C)O2` (configuration not stated), 271 to 272 °C; that for `Oc1ncnc2c1c(Nc1cccnc1)nn2Cc1ccccc1`, 150 to 160 °C. The result for `O=C(Cn1ccnc1[N+](=O)[O-])NCC(F)(F)C(F)(F)F` reads 136 to 137 °C. Next, `CNC(=O)n1cnc(C(N)=O)c1N`: 165 to 169 °C; `Cc1cccc(-c2n[nH]cc2-c2ccc(F)c(-c3cc(F)c(S(N)(=O)=O)cc3F)c2)n1`: 122 to 125 °C.

`CC(C)c1ccc(-n2nc(C(C)(C)C)cc2NC(=O)c2cncc3cc(Oc4cc(N)ncn4)ccc23)cc1` came in with a melting point of 131 to 133 °C.

In the case of `COC(=O)C1=C(C)Nc2ccccc2SC1c1ccccc1C(F)(F)F` (configuration not stated), the melting point was in the range of 165 to 166 °C.

`COc1ccc2cccc(N3C(=O)CN(CC#N)CC3=O)c2c1`: the melting point was 204 °C. The result for `Cc1cc2c(c3ccc(=O)[nH]c13)OC(COS(C)(=O)=O)C2` (configuration not stated) reads 200 to 203 °C. `CCC=Cc1nc2ccccc2n1Cc1ccc(C#N)cc1` came in with a melting point of 125 °C. The result for `Cc1c(-c2cnc(C(N)=O)c3[nH]c4cc(NC5CCOC5)ccc4c23)cccc1N1Cc2ccc(Cl)cc2C1=O` (configuration not stated) reads 115 °C. Compound `CCCCc1nc2c(N)nc3ccccc3c2n1CCCC1(C)OCCO1` came in with a melting point of 169 to 172 °C. In turn, `CCOC(=O)CCC(=O)OCC(F)(F)Cn1nc(C)c(-c2ccc3c(c2)NC(=O)CO3)c1-c1ccc(F)cc1` displayed a melting point of 100 °C. The result for `O=C(O)CCc1ccc(C(=O)c2c(-c3ccc(O)cc3)sc3cc(O)ccc23)cc1` reads 244 to 248 °C; that for `CC1Cc2cc3c(cc2C(c2ccc([N+](=O)[O-])cc2)=NN1C1=NCCO1)OCO3` (configuration not stated), 194 to 196 °C; that for `OCC1OC(n2c(S)nc3c(NCc4ccccc4)ncnc32)C(O)C1O` (configuration not stated), 145 to 148 °C. Next, `CC1CCC(C(C)C)C(OC(=O)c2ccc(N)cc2O)C1` (configuration not stated): 187 to 189 °C; `CC(=O)c1ccc2c(c1)Cc1ccc(C(C)=O)cc1-2`: 155 °C. For `COc1ccc(Nc2ccc(Nc3nc(C)nc4cc(-c5ccccc5)sc34)cc2)cc1`, the melting point fell in the range of 181 to 185 °C.

As to `CN1CCCC(c2cccc3ccc(N)cc23)C1` (configuration not stated), the melting point lay within 117 to 120 °C.

In the case of `Cc1cccc(C(=NO)c2ccc(Cl)cc2)c1O`, the melting point came out at 178 °C. The result for `CCC(=O)CC(=O)C1CCC2C3CCC4CC(O)CCC4(C)C3C(=O)CC12C` (configuration not stated) reads 128 to 130 °C; that for `CN(C)C(=O)Cc1nnc2n1-c1ccc(Cl)cc1C(c1ccccc1)=NC2`, 204 to 206 °C. As to `O=C1N(Cc2cccnc2)c2ccccc2C12COc1cc(F)c(F)cc12` (configuration not stated), the melting point lay within 175 to 177 °C.

The compound `COc1cc(N)c(CCN2CCN(c3nsc4ccccc34)CC2)cc1OC` yielded a melting point of 55 °C. Next, `N#CC=Cc1ccc(C=O)cc1`: 122 °C; `CC(C)Oc1c(Br)c(Br)n(Cc2ccccc2)c1C(=O)Nc1nnn[nH]1`: 199 to 205 °C; `COC(=O)c1c(SCc2ccc(OC)cc2)ncn1Cc1cc2c(cc1Cl)OCO2`: 123 °C.

Consider `COc1ccc(CNc2nnc(Cl)c3cc(Cl)c(Cl)cc23)cc1Cl`, for which the melting point was in the range of 208 to 209 °C. The result for `CC(=O)NCCc1c(-c2ccccc2)oc2ccc3c(c12)OCCO3` reads 192 °C; that for `CC1(C)Cc2ccc(C(F)(F)F)c(C#N)c2O1`, 79 to 83 °C; that for `Cc1cc2c(cc1Br)OCC(C)(C)CC2(O)c1ccccn1` (configuration not stated), 129 °C. Next, `CCCC/C=C\c1c([C@H](O)[C@H](CCCC)NC(=O)[C@H](CC(C)C)NC(=O)OCc2ccccc2)c1=O`: 87 to 94 °C; `Cc1nc(NC(=O)c2cnn3c(C(F)(F)F)cc(-c4ccc(C(F)(F)F)cc4)nc23)sc1S(=O)(=O)N(C)CCO`: 266 °C; `COc1ccc(S(=O)(=O)N(CC(N)=O)c2ccc(Cl)cc2C(O)c2cc(Cl)ccc2Cl)cc1OC` (configuration not stated): 132 °C.

Take `O=C1CCC(CCN2CC=C(c3ccccc3)CC2)CC1`: the melting point was 94 to 96 °C. Next, `CCC(CC)(CC(=O)Nc1cccc(OCc2ccc3cc(C)ccc3n2)c1)C(=O)O`: 175 °C. Next, `CCOCc1nnc2n1-c1ccc(Cl)cc1C(c1ccccc1)=NC2`: 168 to 170 °C; `CC(C)(C)[Si](C)(C)O[C@H]1C=C(I)C(=O)C1`: 38.5 °C; `CCOC(=O)c1nn(-c2ccc(Cl)cc2Cl)c(-c2ccc(Br)cc2)c1C`: 133 °C. In the case of `OC(CN1CC=C(c2ccc(Cl)cc2)CC1)c1ccc(Cc2ccc(Cl)cc2)cc1` (configuration not stated), the melting point lay within 149 to 152 °C. Next, `CCOC(=O)c1cn(-c2nc(NC(C)(C)C)c(F)cc2F)c2c(F)c(F)c(F)cc2c1=O`: 174 to 178 °C. As to `CS(=O)(=O)c1ccccc1[N+](=O)[O-]`, the melting point is 102 to 104 °C.

`COC(=O)C(O)(c1ccc(C(F)(F)F)cc1)c1ccc(C(F)(F)F)cc1` registered a melting point of 68 °C. For the compound `Cn1nccc1NC(=O)N1CCN(c2nc(-c3ccccc3F)cs2)CC1`, the melting point was 156 to 157 °C. In turn, `CC(=O)S[C@@H]1CCO[C@@H](/C(C)=C/c2ccc(C(F)(F)F)cc2)O1` (relative stereo) gave a melting point of 128 to 129 °C.

With `O=C1Cc2c(cccc2OCCNCc2ccccc2)N1`, the melting point is 145 to 146 °C. The result for `CCCCCCCCCCc1cc2c(s1)NC(=O)CN=C2c1ccccc1C` reads 100 to 102 °C; that for `Cc1cc(CN(Cc2ccc(F)cc2)c2cc(-c3ccc(C(F)(F)F)cc3)nn2C)cc(C)c1OC(C)(C)C(=O)O`, more than 90 °C; that for `CCCCOCCOc1ccc(-c2cc3c4c(c2)OCCN4CCCC(C(=O)O)=C3)cc1`, 205 to 209 °C.

`N#Cc1ccc2c(c1)C(=O)c1ccccc1CC2` registered a melting point of 104 to 106 °C. The result for `CCCCOc1ccc(S(=O)(=O)NC(=O)c2ccc(C(=O)OC)nc2)cc1` reads 174 to 176 °C; that for `CC1(C)OC(c2ccc(S(C)(=O)=O)cc2)=C(c2cccc(C(F)(F)F)c2)C1=O`, 115 to 116 °C. With `S=[PH](c1ccccc1)c1ccccc1`, the melting point lay in the range of 134 to 135 °C.

`CC(=O)Oc1ccccc1C1CCC(=O)CC1`: the melting point fell in the range of 86 to 87 °C.

On to `NS(=O)(=O)c1cc2c(cc1Cl)NC(c1ccccc1)NS2(=O)=O` (configuration not stated), for which the melting point is 235 to 238 °C. The result for `CNC(=O)Nc1sc2nc(C)ccc2c1C(=O)N1CCC(N2CCCC3(CCN(C(C)C)C3=O)C2)CC1` (configuration not stated) reads 195 to 198 °C; that for `COc1ccc(CCn2ccn(C3CCc4ccccc4C3)c2=S)cc1OC` (configuration not stated), 97 to 101 °C; that for `CC1=C(C(=C2SCSCS2)c2ccc(C)cc2)CN(C)O1`, 89 to 90 °C.

Consider `CC(c1ccc(O)cc1)(c1ccc(O)cc1)c1ccc(-c2ccccc2)cc1`, for which the melting point was 182 to 183 °C. The result for `CC(C)(C)OC(=O)N1C(=O)C2(COc3cc4c(cc32)OCO4)c2c(Br)cccc21` (configuration not stated) reads 154 to 156 °C. Next, `CC1(C)OCC(CCn2cnc3c(N)nc(N)nc32)CO1`: 202 to 204 °C; `NCCCCc1cnc(-c2ccccc2)s1`: 62 to 64 °C.

As to `Cc1ccc2nc(-c3ccccc3)c(-c3ccccc3)nc2c1`, the melting point was 114 to 116 °C. Take `COC(=O)c1c(C(F)F)nc(C(F)(F)F)c(C(=O)OC)c1OC(C)C`: the melting point is 41 to 42 °C.

Take `CC1(C)CC(OC(=O)CCC(=O)OC2CC(C)(C)N(OC3CCCCC3)C(C)(C)C2)CC(C)(C)N1OC1CCCCC1`: the melting point was in the range of 122 to 126 °C. The result for `N#CSCC(=O)c1ccccc1` reads 75 to 77 °C; that for `COc1ccc(-c2cccs2)c2c(OC)ccc(-c3cccs3)c12`, 216 to 218 °C.
